Results: ChEMBL document CHEMBL4428099, “Identification of indole scaffold-based dual inhibitors of NOD1 and NOD2” (Bioorg Med Chem, 2016)
Activity calls are given as the source filed them. The calls are words filed in the database; no cut-off is given here.

Legend:
Format in all cases: cell-based
[1] = Cytotoxicity against HEK-Blue cells assessed as residual metabolic activity up to 25 uM measured after 24 hrs by MTS assay relative to untreated control; conditions: human, read-out: Activity
[2] = biological target: T1, Nucleotide-binding oligomerization domain-containing protein 1 (Homo sapiens) (UniProt Q9Y239); experiment: Inhibition of human NOD1 over-expressed in HEK-Blue cells assessed as inhibition of […] NF-kappaB transcriptional activity measured as residual activity at 25 uM preincubated for 1 hr followed by addition of C12-iE-DAP measured after 18 hrs by SEAP reporter gene assay relative to control
T1 sequence (whole entry): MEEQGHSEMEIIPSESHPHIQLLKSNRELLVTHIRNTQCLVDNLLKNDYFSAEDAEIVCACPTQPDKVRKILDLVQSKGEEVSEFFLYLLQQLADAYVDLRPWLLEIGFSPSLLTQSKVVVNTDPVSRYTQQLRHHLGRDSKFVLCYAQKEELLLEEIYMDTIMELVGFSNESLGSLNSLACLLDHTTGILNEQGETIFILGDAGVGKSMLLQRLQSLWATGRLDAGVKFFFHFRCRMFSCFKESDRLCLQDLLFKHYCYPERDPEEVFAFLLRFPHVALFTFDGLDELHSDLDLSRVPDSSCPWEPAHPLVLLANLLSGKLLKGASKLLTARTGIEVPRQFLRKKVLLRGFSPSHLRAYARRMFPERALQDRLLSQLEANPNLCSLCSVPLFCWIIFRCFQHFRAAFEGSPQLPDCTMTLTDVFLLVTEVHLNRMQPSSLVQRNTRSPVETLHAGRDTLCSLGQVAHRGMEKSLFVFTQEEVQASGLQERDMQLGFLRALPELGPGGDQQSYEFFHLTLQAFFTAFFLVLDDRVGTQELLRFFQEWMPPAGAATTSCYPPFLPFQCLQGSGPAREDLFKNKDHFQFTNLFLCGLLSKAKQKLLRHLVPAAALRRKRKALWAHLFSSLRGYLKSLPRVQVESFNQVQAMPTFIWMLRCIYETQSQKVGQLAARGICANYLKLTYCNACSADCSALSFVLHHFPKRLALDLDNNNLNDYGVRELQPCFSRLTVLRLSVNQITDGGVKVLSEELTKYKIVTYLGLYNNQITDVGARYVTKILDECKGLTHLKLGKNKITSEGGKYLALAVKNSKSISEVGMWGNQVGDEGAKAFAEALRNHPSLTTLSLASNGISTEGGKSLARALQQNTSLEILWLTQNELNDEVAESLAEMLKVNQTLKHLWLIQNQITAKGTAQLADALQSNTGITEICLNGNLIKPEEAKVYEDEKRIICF

[3] = biological target: Nucleotide-binding oligomerization domain-containing protein 2 (Homo sapiens, UniProt Q9HC29); experiment: Inhibition of human NOD2 over-expressed in HEK-Blue cells assessed as inhibition of […] NF-kappaB transcriptional activity preincubated for 1 hr followed by addition of C12-iE-DAP measured after 18 hrs by SEAP reporter gene assay
[4] = biological target: T2, Nucleotide-binding oligomerization domain-containing protein 1 (Homo sapiens, UniProt Q9Y239); experiment: Inhibition of human NOD1 over-expressed in HEK-Blue cells assessed as inhibition of […] NF-kappaB transcriptional activity preincubated for 1 hr followed by addition of C12-iE-DAP measured after 18 hrs by SEAP reporter gene assay
T2 sequence (Q9Y239 whole entry): T1 sequence (whole entry)

Sequence of Nucleotide-binding oligomerization domain-containing protein 2 (Q9HC29 whole entry, the tested form may be a part): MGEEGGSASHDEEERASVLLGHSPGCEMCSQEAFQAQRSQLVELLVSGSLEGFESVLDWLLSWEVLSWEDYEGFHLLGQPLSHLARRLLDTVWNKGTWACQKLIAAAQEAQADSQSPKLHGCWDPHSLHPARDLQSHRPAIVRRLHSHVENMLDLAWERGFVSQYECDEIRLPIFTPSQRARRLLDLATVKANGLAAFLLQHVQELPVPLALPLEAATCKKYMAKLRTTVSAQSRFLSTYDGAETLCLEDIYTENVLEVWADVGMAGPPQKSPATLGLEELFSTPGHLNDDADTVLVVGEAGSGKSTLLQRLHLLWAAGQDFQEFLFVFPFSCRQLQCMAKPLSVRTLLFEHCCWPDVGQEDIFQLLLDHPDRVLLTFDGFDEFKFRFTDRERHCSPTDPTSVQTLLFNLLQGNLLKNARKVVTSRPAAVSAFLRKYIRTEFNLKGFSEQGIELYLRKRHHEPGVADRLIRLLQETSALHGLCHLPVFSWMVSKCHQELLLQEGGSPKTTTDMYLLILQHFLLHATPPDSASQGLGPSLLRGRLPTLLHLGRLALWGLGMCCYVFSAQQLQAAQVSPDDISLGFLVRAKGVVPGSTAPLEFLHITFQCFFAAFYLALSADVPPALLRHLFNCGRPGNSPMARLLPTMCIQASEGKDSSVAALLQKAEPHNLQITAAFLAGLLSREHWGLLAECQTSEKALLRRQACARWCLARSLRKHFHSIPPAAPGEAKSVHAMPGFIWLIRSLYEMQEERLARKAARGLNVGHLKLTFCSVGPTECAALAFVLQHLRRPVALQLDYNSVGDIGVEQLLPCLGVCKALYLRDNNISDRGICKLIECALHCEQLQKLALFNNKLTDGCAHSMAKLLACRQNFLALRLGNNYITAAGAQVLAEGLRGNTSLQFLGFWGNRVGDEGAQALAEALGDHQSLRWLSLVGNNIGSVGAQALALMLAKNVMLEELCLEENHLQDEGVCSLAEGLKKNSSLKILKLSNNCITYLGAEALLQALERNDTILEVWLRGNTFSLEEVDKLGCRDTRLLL

Row | Activity [2] | SMILES | viability at 24 h [1] | IC50 [3] | IC50 [4]
1 | 46% | CCOC(=O)c1cc2ccccc2n1Cc1ccc(C(F)(F)F)cc1 | ≥ 80% |  | 
2 | 42% | CCOC(=O)c1cc2ccccc2n1Cc1ccc(C(C)C)cc1 | ≥ 80% |  | 
3 | 58% | CCOC(=O)c1cc2ccccc2n1Cc1ccccc1 | ≥ 80% |  | 
4 |  | CC(C)(C)OC(=O)Nc1cc2ccccc2n1Cc1ccc(Cl)cc1 | ≥ 80% |  | 
5 | 53% | CCOC(=O)c1cc2ccccc2n1Cc1ccc(F)cc1 | ≥ 80% |  | 
6 |  | Cc1ccc(S(=O)(=O)n2c(C(=O)O)cc3ccccc32)cc1 | ≥ 80% |  | 
7 | 76% | Cc1ccc(S(=O)(=O)n2c(C(N)=O)cc3ccccc32)cc1 | ≥ 80% |  | 
8 |  | O=C(O)c1cc2ccccc2n1Cc1ccc(Cl)cc1 | ≥ 80% |  | 
9 |  | Cc1ccc(S(=O)(=O)n2c(NC(=O)OC(C)(C)C)cc3ccccc32)cc1 | ≥ 80% |  | 
10 | 9% | Cc1ccc(S(=O)(=O)n2c(N)nc3ccccc32)cc1 | ≥ 80% | 54.9 µM | 
11 |  | CCOC(=O)c1cc2ccccc2n1C(=O)c1ccc(C)cc1 | ≥ 80% | 24.6 µM | 16 µM
12 | 37% | CCOC(=O)c1cc2ccccc2n1S(=O)(=O)c1ccc(C(F)(F)F)cc1 | ≥ 80% |  | 
13 | 39% | CCOC(=O)c1cc2ccccc2n1Cc1ccc(C2CC2)cc1 | ≥ 80% |  | 
14 | 45% | CCOC(=O)c1cc2ccccc2n1Cc1ccc(Br)cc1 | ≥ 80% |  | 
15 | 29% | CCOC(=O)c1cc2ccccc2n1Cc1ccc(Cl)cc1 | ≥ 80% |  | 
16 |  | Cc1ccc(S(=O)(=O)N2C(=N)Cc3ccccc32)cc1 | ≥ 80% |  | 
17 | inactive | N=C1Cc2ccccc2N1Cc1ccc(C(F)(F)F)cc1 | ≥ 80% |  | 
18 | 68% | Cc1ccc(S(=O)(=O)n2c(C(=O)NN)cc3ccccc32)cc1 | ≥ 80% |  | 
19 | 36% | CCOC(=O)c1cc2ccccc2n1S(=O)(=O)c1ccc(OC)cc1 | ≥ 80% |  | 

Row | SMILES | Activity [2] | viability at 24 h [1] | IC50 [3] | IC50 [4]
20 | N=C1Cc2ccccc2N1Cc1ccccc1 | 72% | ≥ 80% |  | 
21 | CCOC(=O)c1cc2ccccc2n1Cc1ccc(C)cc1 | 24% | ≥ 80% | 9.04 µM | 7.78 µM
22 | CCOC(=O)c1cc2ccccc2n1S(=O)(=O)c1ccc([N+](=O)[O-])cc1 | 27% | ≥ 80% | 16.9 µM | 15 µM
23 | CCOC(=O)c1cc2ccccc2n1S(=O)(=O)c1ccc(C)cc1 | 24% | ≥ 80% | 6.45 µM | 5.74 µM
24 | Cc1ccc(CN2C(=N)Cc3ccccc32)cc1 | inactive | ≥ 80% |  | 
25 | N=C1Cc2ccccc2N1Cc1ccc(C2CC2)cc1 | inactive | ≥ 80% |  | 
26 | CC(C)c1ccc(CN2C(=N)Cc3ccccc32)cc1 | inactive | ≥ 80% |  | 
27 | N=C1Cc2ccccc2N1Cc1ccc(Cl)cc1 | 44% | ≥ 80% | > 25 µM | 15.7 µM
28 | CCOC(=O)c1cc2ccccc2n1S(=O)(=O)c1ccc(Cl)cc1 | 30% | ≥ 80% | 23.4 µM | 19.8 µM
29 | CCOC(=O)c1cc2ccccc2n1S(=O)(=O)c1ccc(F)cc1 | 24% | ≥ 80% | 12.6 µM | 9.22 µM
30 | N=C1Cc2ccccc2N1Cc1ccc(Br)cc1 | inactive | ≥ 80% |  | 
